Experimental data: PubChem BioAssay (NCI)
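Following 48 hours of exposure in 96-well plates, responses at five concentrations were used to interpolate endpoints linearly. At the TGI there is no net growth.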

What was measured:
Experiment in all cases: NCI tumour cell line growth inhibition, 48 h
786-0 renal = system: 786-0 renal
A498 renal = system: A498 renal
A549 NSCLC = system: A549 NSCLC
ACHN renal = system: ACHN renal
CAKI-1 renal = system: CAKI-1 renal
CCRF-CEM leukemia = system: CCRF-CEM leukemia
COLO 205 colon = system: COLO 205 colon
DLD-1 colon = system: DLD-1 colon
DMS 114 small cell lung = system: DMS 114 small cell lung
HCC-2998 colon = system: HCC-2998 colon
HCT-116 colon = system: HCT-116 colon
HCT-15 colon = system: HCT-15 colon
HL-60(TB) leukemia = system: HL-60(TB) leukemia
HOP-18 NSCLC = system: HOP-18 NSCLC
HOP-92 NSCLC = system: HOP-92 NSCLC
HT29 colon = system: HT29 colon
IGROV1 ovarian = system: IGROV1 ovarian
K-562 leukemia = system: K-562 leukemia
KM12 colon = system: KM12 colon
KM20L2 colon = system: KM20L2 colon
LOX IMVI melanoma = system: LOX IMVI melanoma
LXFL 529 NSCLC = system: LXFL 529 NSCLC
MALME-3M melanoma = system: MALME-3M melanoma
MOLT-4 leukemia = system: MOLT-4 leukemia
NCI-H23 lung = system: NCI-H23 lung
NCI-H460 lung = system: NCI-H460 lung
OVCAR-5 ovarian = system: OVCAR-5 ovarian
OVCAR-8 ovarian = system: OVCAR-8 ovarian
RXF-631 renal = system: RXF-631 renal
SF-268 CNS = system: SF-268 CNS
SF-295 CNS = system: SF-295 CNS
SF-539 CNS = system: SF-539 CNS
SK-MEL-2 melanoma = system: SK-MEL-2 melanoma
SK-MEL-28 melanoma = system: SK-MEL-28 melanoma
SK-OV-3 ovarian = system: SK-OV-3 ovarian
SN12C renal = system: SN12C renal
SNB-19 CNS = system: SNB-19 CNS
SNB-75 CNS = system: SNB-75 CNS
SNB-78 CNS = system: SNB-78 CNS
SR leukemia = system: SR leukemia
SW-620 colon = system: SW-620 colon
TK-10 renal = system: TK-10 renal
U251 CNS = system: U251 CNS
UACC-257 melanoma = system: UACC-257 melanoma
UACC-62 melanoma = system: UACC-62 melanoma
UO-31 renal = system: UO-31 renal
XF 498 CNS = system: XF 498 CNS
DMS 273 small cell lung = system: DMS 273 small cell lung
EKVX NSCLC = system: EKVX NSCLC
HOP-62 NSCLC = system: HOP-62 NSCLC
M14 melanoma = system: M14 melanoma
M19-MEL melanoma = system: M19-MEL melanoma
NCI-H226 lung = system: NCI-H226 lung
NCI-H522 lung = system: NCI-H522 lung
OVCAR-3 ovarian = system: OVCAR-3 ovarian
RPMI-8226 leukemia = system: RPMI-8226 leukemia
SK-MEL-5 melanoma = system: SK-MEL-5 melanoma

CCCCCCCCc1cc2c(O)c(c1)Cc1cc(CCCCCCCC)cc(c1O)Cc1cc(CCCCCCCC)cc(c1O)Cc1cc(CCCCCCCC)cc(c1O)Cc1cc(CCCCCCCC)cc(c1O)Cc1cc(CCCCCCCC)cc(c1O)C2
TGI (786-0 renal): > 100 µM
TGI (A498 renal): > 100 µM
TGI (A549 NSCLC): > 100 µM
TGI (ACHN renal): > 100 µM
TGI (CAKI-1 renal): > 100 µM
TGI (CCRF-CEM leukemia): > 100 µM
TGI (COLO 205 colon): > 100 µM
TGI (DLD-1 colon): > 100 µM
TGI (DMS 114 small cell lung): > 100 µM
TGI (HCC-2998 colon): > 100 µM
TGI (HCT-116 colon): > 100 µM
TGI (HCT-15 colon): > 100 µM
TGI (HL-60(TB) leukemia): > 100 µM
TGI (HOP-18 NSCLC): > 100 µM
TGI (HOP-92 NSCLC): > 100 µM
TGI (HT29 colon): > 100 µM
TGI (IGROV1 ovarian): > 100 µM
TGI (K-562 leukemia): > 100 µM
TGI (KM12 colon): > 100 µM
TGI (KM20L2 colon): > 100 µM
TGI (LOX IMVI melanoma): > 100 µM
TGI (LXFL 529 NSCLC): > 100 µM
TGI (MALME-3M melanoma): > 100 µM
TGI (MOLT-4 leukemia): > 100 µM
TGI (NCI-H23 lung): > 100 µM
TGI (NCI-H460 lung): > 100 µM
TGI (OVCAR-5 ovarian): > 100 µM
TGI (OVCAR-8 ovarian): > 100 µM
TGI (RXF-631 renal): > 100 µM
TGI (SF-268 CNS): > 100 µM
TGI (SF-295 CNS): > 100 µM
TGI (SF-539 CNS): > 100 µM
TGI (SK-MEL-2 melanoma): > 100 µM
TGI (SK-MEL-28 melanoma): > 100 µM
TGI (SK-OV-3 ovarian): > 100 µM
TGI (SN12C renal): > 100 µM
TGI (SNB-19 CNS): > 100 µM
TGI (SNB-75 CNS): > 100 µM
TGI (SNB-78 CNS): > 100 µM
TGI (SR leukemia): > 100 µM
TGI (SW-620 colon): > 100 µM
TGI (TK-10 renal): > 100 µM
TGI (U251 CNS): > 100 µM
TGI (UACC-257 melanoma): > 100 µM
TGI (UACC-62 melanoma): > 100 µM
TGI (UO-31 renal): > 100 µM
TGI (XF 498 CNS): > 100 µM

CCOC(=O)C(Br)=C1OC(=O)c2ccccc2-c2ccccc21 (mixture of isomers)
TGI (786-0 renal): 32.7 µM
TGI (A549 NSCLC): > 100 µM
TGI (ACHN renal): 29 µM
TGI (CAKI-1 renal): 32.7 µM
TGI (CCRF-CEM leukemia): 40.2 µM
TGI (COLO 205 colon): 32.9 µM
TGI (DLD-1 colon): 36.4 µM
TGI (DMS 114 small cell lung): 32.2 µM
TGI (DMS 273 small cell lung): 29 µM
TGI (EKVX NSCLC): > 100 µM
TGI (HCC-2998 colon): 38 µM
TGI (HCT-116 colon): 34 µM
TGI (HCT-15 colon): 40 µM
TGI (HL-60(TB) leukemia): 35 µM
TGI (HOP-18 NSCLC): 51.4 µM
TGI (HOP-62 NSCLC): 37.4 µM
TGI (HOP-92 NSCLC): 29.5 µM
TGI (HT29 colon): 29.5 µM
TGI (IGROV1 ovarian): 34.4 µM
TGI (K-562 leukemia): 22.7 µM
TGI (KM12 colon): 34.9 µM
TGI (LOX IMVI melanoma): 35.9 µM
TGI (LXFL 529 NSCLC): 26.5 µM
TGI (M14 melanoma): 37.1 µM
TGI (M19-MEL melanoma): 31 µM
TGI (MALME-3M melanoma): 37.6 µM
TGI (MOLT-4 leukemia): 47.6 µM
TGI (NCI-H226 lung): 60.4 µM
TGI (NCI-H23 lung): 48 µM
TGI (NCI-H522 lung): 32 µM
TGI (OVCAR-3 ovarian): 35.9 µM
TGI (OVCAR-5 ovarian): 42.6 µM
TGI (OVCAR-8 ovarian): 75.8 µM
TGI (RPMI-8226 leukemia): 38.1 µM
TGI (RXF-631 renal): 49.9 µM
TGI (SF-268 CNS): 88.3 µM
TGI (SF-295 CNS): 54.4 µM
TGI (SF-539 CNS): 46.8 µM
TGI (SK-MEL-2 melanoma): 37.4 µM
TGI (SK-MEL-28 melanoma): 37.8 µM
TGI (SK-MEL-5 melanoma): 35.8 µM
TGI (SK-OV-3 ovarian): > 100 µM
TGI (SN12C renal): 56.4 µM
TGI (SNB-75 CNS): 51 µM
TGI (SNB-78 CNS): 52.3 µM
TGI (SR leukemia): 47.2 µM
TGI (SW-620 colon): 35.1 µM
TGI (TK-10 renal): 49 µM
TGI (U251 CNS): 59.4 µM
TGI (UACC-257 melanoma): 48 µM
TGI (UACC-62 melanoma): 29.5 µM
TGI (UO-31 renal): > 100 µM
TGI (XF 498 CNS): 38.5 µM
